In general, melting point refers to the temperature, or range, at which the solid turns liquid.

Turning to `O=C(O)c1cccc(-c2cc3ccc(Cl)cc3[nH]c2=O)c1`, the melting point is more than 330 °C. For `CC(C)(C)c1cc(/C=C/c2nnc(N)o2)cc(C(C)(C)C)c1O` the value was 221 °C.

As for `Clc1cc(Cl)c(-n2nccc2Cl)c(Cl)c1`, the melting point is 96 °C. `CCOC(=O)C(Cc1ccc(-c2cccc(N(C)C(=O)Nc3ccc(N(C)C)cc3)c2)cc1)Nc1ccccc1C(=O)c1ccccc1` (stereo not drawn) yielded a melting point of 75 °C. `CCCCCCCCCCCCc1cc(C(C(=O)Nc2c(OC)cc(OC)cc2OC)c2ccccc2)on1` (stereo not drawn) had a melting point of 88 to 97 °C. For `CNc1c2c(nn1C)N(c1c(C)cc(C)cc1C)CCC2` the value was 143 to 145 °C.

`CCCCC=Cc1cc2ccccc2[nH]1` gave a melting point of 70 to 72 °C.

`COC(=O)c1ccc(C[C@H](NC(=O)OCc2ccccc2)C(=O)O)cc1` gave a melting point of 102 to 106 °C. In the case of `COc1ccc(-c2nc(CN(C)c3ccccc3)nc3cc(OC)c(OC)cc23)cc1OC`, the melting point is 141 to 143 °C. For `C[C@]1(CN)COc2cccc(-c3ccccc3)c2O1` the value was 130 to 133 °C. `Cc1cc(C)c2ncc(N)c(-c3ccccc3Cl)c2c1` yielded a melting point of 152 to 154 °C. For the compound `COc1cccc(C2(CCCCC(=O)O)CCCCC2=O)c1` (stereo not drawn), the melting point fell in the range of 89 to 91 °C. `CCC(C)(C)NC(=S)Nc1cc(F)cc(Br)c1` registered a melting point of 123 to 124 °C. In the case of `O=C(O)c1cn(-c2ccc(F)cc2F)c2c(F)c(N3Cc4ccc(Cl)cc4C3)c(F)cc2c1=O`, the melting point was in the range of 242 to 247 °C. For `CN1CCC2(CC1)Oc1ccccc1Cn1cccc12` the value was 100 to 101 °C; for `CC(C)CC(=O)N1CCC(c2nc3cc(-c4ccc(-n5cnnn5)cc4F)ccc3o2)CC1`, 168 to 172 °C. For `N#CC(N)=C(C#N)NCc1ccc(Cl)c(Cl)c1` the value was 158 to 160 °C; for `COc1cccc2c1nc(C(F)F)n2-c1nc(Nc2ccc(N(C)C)nc2)nc(N2CCOCC2)n1`, 136 to 137 °C. As to `Nc1cc(-c2cc(Cl)cc(Cl)c2)cc2nc(-c3ccco3)nn12`, the melting point fell in the range of 257 to 260 °C. In turn, `CS(=O)(=O)Nc1ccc([N+](=O)[O-])cc1C(=O)c1ccc(F)cc1F` yielded a melting point of 172 to 178 °C.

Compound `O=C(O)C1=CSC2C(=Cc3cc4c(s3)-c3cccnc3SC4)C(=O)N12` (stereo not drawn) gave a melting point of 113 to 115 °C. Compound `CCOC(=O)Cc1cccc2c(-c3ccccc3)nccc12` yielded a melting point of 141 °C. `C=CCNc1c(CO)cnc2cn[nH]c12` registered a melting point of 190 to 192 °C. For `CCCCCc1cc2c(nc(O)n2CC(C)(C)O)c(N)n1`, the melting point is 240 to 243 °C. The compound `CCOC(=O)C1N=CSC12CCN(Cc1ccccc1)CC2` (stereo not drawn) came in with a melting point of 67 to 68 °C. `CC(=O)N1CCN=C1CC(c1ccccc1)c1ccccc1` showed a melting point of 104 to 106 °C. To `O=C1c2cccc3c2N(CC3)c2ccc(Br)cc2N1CC#CCN1CCCC1` belongs 121 to 122 °C.

Take `CCOC(=O)c1c(NC(C)=O)sc2c1C=CC=CC=CC=CC=C2`: the melting point was in the range of 54 to 74 °C. In the case of `Cc1cc(Cl)ccc1Oc1ccc(NC(=O)N2CCc3ccccc3CC2)cn1`, the melting point lay in the range of 151 to 153 °C. For `COc1ccc(C(O)(CN)Cc2ccccc2N)cc1OC` (stereo not drawn) the value was 131 to 133 °C; for `Cn1ncc2c(=O)n3c(nc21)SC(C)(C)C3`, 188 °C; for `CSc1ncc(C(O)c2ccc(C)nc2)c(O)n1` (stereo not drawn), 140 °C.

`O=C1CCC(N2C(=O)c3ccc(CNC(=O)c4ccc(SC(F)(F)F)cc4)cc3C2=O)C(=O)N1` (stereo not drawn) yielded a melting point of 171 to 173 °C. Compound `CC(=O)OCc1cccc2sc(-c3ccccc3)nc12` showed a melting point of 83 to 84 °C.

In turn, `Cc1sc(C=O)cc1NC(=O)OCc1ccccc1` showed a melting point of 120 °C.

In turn, `OC1CCN(CCCc2noc3cc(F)ccc23)CC1` gave a melting point of 88 to 89 °C. On to `Cc1nc(N2C[C@@H](C)N(Cc3ccc(F)cc3)C2=O)sc1C(=O)NCc1cncs1`, for which the melting point was in the range of 66 to 69 °C.

The compound `CN1CCCc2cc(C(C)(C(=O)O)c3ccc4c(c3)CCCN4C)ccc21` had a melting point of 155 to 157 °C. `Clc1ccccc1Oc1cnccc1N1CCNCC1` displayed a melting point of 99 to 101 °C. Compound `CCc1cn(C)c2cc(-c3ccccc3Cl)c3c(c12)C(=O)NC3=O` came in with a melting point of 230 to 233 °C. To `CCCCCCCCCCCCNC(=O)COc1ccc(O)cc1NCC(=O)O` belongs 122 to 125 °C; to `CC(C)(C)OC(=O)N1CCC(c2ccc(COc3ccc(S(C)(=O)=O)cc3)cn2)CC1`, 140 to 142 °C; to `CCOC(=O)C1=C(N)NC2=C(C(=O)CCC2)C1c1cccc(C(=O)OCC)c1` (stereo not drawn), 234 °C.

In turn, `CCc1cccc(CC)c1NC(=O)Nc1oc2ccc(Cl)cc2c1-c1ccccc1C` gave a melting point of 233 to 234 °C. To `NC(=O)CCC(CCCCNS(=O)(=O)c1ccc(Cl)cc1)CCCc1cccnc1` (stereo not drawn) belongs 100 to 102 °C.

Compound `C(=C\c1cc(/C=C/c2ccccc2OCc2ccccn2)[nH]n1)/c1ccc2cc[nH]c2c1` came in with a melting point of 113 to 120 °C.

`O=C1CCc2ccc(OCc3ccccc3)cc21` came in with a melting point of 99 to 101 °C. To `O=C(NCCO)C1=CNc2cccnc2S1` belongs 192 to 195 °C; to `Cc1oc(-c2ccccc2)nc1CCOc1ccc(CON=C(CCC(=O)O)c2ccccc2)cc1`, 106 to 107 °C; to `O=C(NC(=O)c1c(F)cccc1F)Nc1ccc(S(=O)(=O)C(F)(F)C(F)F)cc1F`, 186 to 187 °C. To `O=C(COc1ccc(-c2cc3ccc(OCC(=O)c4ccc(Cl)cc4)cc3s2)cc1)c1ccc(Cl)cc1` belongs 210 °C. For `CCCCCN(Cc1ccc(-c2ccccc2S(=O)(=O)NC(=O)c2ccccc2Cl)cc1)C(=O)N(Cc1ccccc1)c1ccccc1` the value was more than 60 °C; for `CCCNC(=O)CCCc1ccc2c(c1)c(Cc1ccc(C(=O)O)cc1OC)cn2CCC`, 143 to 144 °C; for `CC(C)C(=O)N[C@@H](CS)C(=O)NCCSC(=O)C(C)(C)C`, 120 to 122 °C. Regarding `COC(=O)c1ccc2c(c1)SCCCC2=O`, the melting point lay in the range of 63 to 64 °C. To `CCOC(=O)C1=C(C)NC(COC(C)=O)=C(C(=O)OCC)C1c1ccc(OC)cc1` (stereo not drawn) belongs 89 to 90 °C; to `O=C(OCc1ccccc1)N1CC[C@@H](Oc2ccc([N+](=O)[O-])cc2)[C@H](O)C1` (relative stereo), 179 to 180 °C; to `CO[C@@H]1C[C@H]2[C@H](C(=O)O)[C@H]2[C@]1(N)C(=O)O`, more than 250 °C. With `CC(C)n1nc(-c2c(-c3ccccc3)nn3ccc(OCC(=O)NC4CCC(O)CC4)cc23)ccc1=O` (stereo not drawn), the melting point was 146 to 148 °C. To `CN1CCN(c2cccc3c2C[C@H](NC(=O)c2ccc(N4CCCCC4)cc2)CO3)CC1` belongs 178 to 180 °C; to `COc1ccc(Cl)cc1C(=O)NCCc1ccc(C=C(C)C(=O)O)cc1`, 188 to 191 °C. To `NNC(=O)C1(Cl)CC1(Cl)Cl` (stereo not drawn) belongs 122 to 123 °C. Turning to `Cc1oc(=O)oc1CN1CCN(c2cc3c(cc2F)c(=O)c(C(=O)O)c2n3C(c3ccccc3)S2)CC1` (stereo not drawn), the melting point was in the range of 201 to 202 °C.

(Values after a melting point compilation (Tetko et al.; mined from patent text by program, amines drawn as free bases though some values may be those of a salt).)
